Source: US20030215788A1, “Cysteine thiol-protected peptides for use in immunoassays” (priority 1989, published 2003)
Read-outs that look alike come from different tables or passages of the source.

Assays:
Antibodies to HIV-1 = type: binding, human
Experimental: The subject peptide compositions were immobilized onto latex beads and entrapped on a microporous membrane atop an absorbent material for the determination and/or quantitation of antibodies to HIV. Examples of such immunoassay apparatus and methods are the subject of U.S. Pat. Nos. 4,633,901 and 4,727,019, both incorporated herein by reference. The membrane concentration immunoassay involves three incubations comprising a total assay time of 10 minutes. Peptides tested were adsorbed to latex beads by the methods described above.
Each sample was tested on a filtration unit comprising three spots on a 1.2 μm pore size nylon membrane. One spot comprising the test peptide/latex bead preparation, one spot comprising a positive procedural control and the other comprising a negative procedural control.
The peptide/latex bead preparation was suspended in 0.1M Tris buffer, pH 7.2, 0.15M NaCl, 0.01M MgCl2, 10% sucrose, 2% fetal calf serum. Membranes were spotted with a 0.1-0.2% suspension of peptide/bead preparation. Negative procedural control spots were comprised of latex beads coated by adsorption with BSA. While positive procedural control spots were comprised of latex beads coated by adsorption with goat antihuman immunoglobulins.
Serum or plasma samples (40 μl) were diluted 1:10 in dilution buffer (10% heat inactivated normal goat serum, 1% dextran sulfate, 0.2% Tween 20, 2.5% nonfat dry milk, 15 ppm Kathon CG, 0.005% antifoam A, in 20 mM sodium citrate buffer, pH 7.4). Diluted specimen was added to the surface of the membrane and allowed to absorb completely. After waiting 2 min. from the time of specimen addition, 1 ml of wash buffer (0.01M Tris-buffered saline, pH 6.0, 0.05M NaCl, 0.005M MgCl2, 0.1% sodium azide, 10 μg/ml nitro blue tetrazolium, 0.5M potassium thiocyanate) was added and allowed to completely absorb through the membrane. About 0.150 ml (3 drops) of goat anti-human Ig-alkaline phosphatase conjugate diluted in 10 mM phosphate buffered saline, pH 7.4, 0.2% goat gamma globulin, 1% bovine serum albumin, 1 mM MgCl2, 0.1 mM ZnCl2 was added to the membrane and allowed to absorb completely. The membrane was washed twice as above (2 ml) and about 0.150 ml (3 drops) of substrate (1M 2-amino-2-methyl-1-propanol, pH 10.3, 5 mg/ml 3-indoxyl phosphate) was added and allowed to absorb completely. After about 5 min. about 1 ml of 0.5M EDTA, pH 7.4, was passed through the membrane to stop the reaction. After the stop solution was completely absorbed the units were read visually or semi-quantitatively by reflectance.

Antibodies to HIV-2 = experiment: EIA of dilutional series of HIV-2 positive sera; type: binding, human
Experimental: Alternative methods of testing immunologic cross-reactivity were also used. In one such method L5 Peptides 39 and 39GC were tested by ELISA as previously described in U.S. Pat. No. 4,629,783. Briefly, stock solutions of peptides 39 and 39-GC were prepared in 6M Gu-HCl. Working dilutions of 20 µg/ml and 6 μg/ml respectively were prepared by dilution of stock solution 0 with 0.05M carbonate/bicarbonate buffer, pH 9.5. Wells of microtiter plates were filled with 100 μl of the working dilution of the peptides and allowed to stand overnight at room temperature. Coating solution was removed and 300 μl of blocking solution supra containing 0.5M ethanolamine was added for 1 hr. at room temperature. Blocking solution was removed and the plates were used immediately or allowed to dry and stored for later use.
Plasma samples were diluted (See Table 1) in sample dilution buffer (above) and 100 μl was added to individual wells. Samples were incubated for 30 min. at 37° C., then removed and the wells were washed six times with 0.15M NaCl, 0.05% Tween 20. One hundred microliters of goat antihuman Ig-horseradish peroxidase conjugate diluted in citrate buffer, pH 7.0, 1% normal goat serum was added to each well for 30 min at 37° C. prior to washing six times as above. The ELISA assay was developed by adding 100 μl/well of substrate solution (80 μg/ml tetramethyl benzidine, 0.0015% hydrogen peroxide in citrate/phosphate buffer, pH 6.0) for 30 min. at room temperature. Reactions were stopped with the addition of 100 μl of H2SO4 per well, and the ratio of the optical density at 450 nm to 630 nm was determined by an automated ELISA reader. The cutoff value for a positive result was set at 0.225 Absorbance Units above the average absorbance obtained for three known negative samples.
The immunoreactivity of HIV-2 peptides synthesized with protected cysteine thiol groups was determined. […] EIAs were performed as described above using viral lysates of HIV-1 and HIV-2 and peptides 39GC (HIV-1) and 41-2-3GC. Reactivity was determined for dilutions of two HIV-2 positive sera, F504282, obtained from a patient in New York, and “GOM,” provided by the Institut Pasteur.
The assays were EIAs performed generally as described above with varying dilutions of HIV-2 positive serum specimens.

“Cys-Gly-Gly-Arg-Ile-Leu-Ala-Val-Glu-Arg-Tyr-Leu-Lys-Asp-Gln-Gln-Leu-Leu-Gly-Ile-Trp-Gly-Cys*-Ser-Gly-Lys-Leu-Ile-Cys*-NH2 [Peptide 39GC]” was tested, and the “No. Positive/Total No.” value (Antibodies to HIV-1; Autoimmune Samples) was 0/51, the “No. Positive/Total No.” value (Antibodies to HIV-1; Normal Blood Bank Donors) was 0/1187 and the “No. Positive/Total No.” value (Antibodies to HIV-1; Problematic HIV-I Seronegative Samples) was 0/72. The “No. Positive/Total No.” value (Antibodies to HIV-1; Secondary, Atypical Syphillis Sera/HIV Neg.) was 0/26, the “No. Positive/Total No.” value (Antibodies to HIV-1; Secondary, Atypical Syphillis Sera/HIV Pos.) was 4/4 and the “No. Positive/Total No.” value (Antibodies to HIV-1; Western Blot Neg./LAV-EIA Pos.) was 0/79. For the same substance, the “No. Positive/Total No.” value (Antibodies to HIV-1; Western Blot Pos./LAV-EIA Pos. (OD < 1.5)) was 120/120, the “No. Positive/Total No.” value (Antibodies to HIV-1; Western Blot Pos./LAV-EIA Pos. (OD > 1.5)) was 29/29 and the “No. Positive/Total No.” value (Antibodies to HIV-1; Western Blot p25 Neg./LAV/EIA Pos. (Atypical 1)) was 0/39. The “No. Positive/Total No.” value (Antibodies to HIV-1; Western Blot p25 Pos./LAV-EIA Pos. (Atypical 2)) was 0/170, the “Reactivity in EIA” value (Antibodies to HIV-2; HIV-2 positive serum F504282 (A), 1:5) was 0.049 and the “Reactivity in EIA” value (Antibodies to HIV-2; HIV-2 positive serum F504282 (A), 1:10) was 0.042. The “Reactivity in EIA” value (Antibodies to HIV-2; HIV-2 positive serum F504282 (A), 1:20) was 0.037, the “Reactivity in EIA” value (Antibodies to HIV-2; HIV-2 positive serum F504282 (A), 1:40) was 0.035 and the “Reactivity in EIA” value (Antibodies to HIV-2; HIV-2 positive serum F504282 (A), 1:80) was 0.033. The “Reactivity in EIA” value (Antibodies to HIV-2; HIV-2 positive serum F504282 (A), 1:160) was 0.040, the “Reactivity in EIA” value (Antibodies to HIV-2; HIV-2 positive serum F504282 (A), 1:320) was 0.031 and the “Reactivity in EIA” value (Antibodies to HIV-2; HIV-2 positive serum F504282 (A), 1:640) was 0.031. For the same substance, the “Reactivity in EIA” value (Antibodies to HIV-2; HIV-2 positive serum F504282 (A), 1:1280) was 0.039, the “Reactivity in EIA” value (Antibodies to HIV-2; HIV-2 positive serum F504282 (A), 1:2560) was 0.030 and the “Reactivity in EIA” value (Antibodies to HIV-2; HIV-2 positive serum F504282 (A), Neat) was 0.075. For the same substance, the “Reactivity in EIA” value (Antibodies to HIV-2; HIV-2 positive serum GOM (B), 1:2) was 0.052, the “Reactivity in EIA” value (Antibodies to HIV-2; HIV-2 positive serum GOM (B), 1:4) was 0.037 and the “Reactivity in EIA” value (Antibodies to HIV-2; HIV-2 positive serum GOM (B), 1:8) was 0.040. For the same substance, the “Reactivity in EIA” value (Antibodies to HIV-2; HIV-2 positive serum GOM (B), 1:16) was 0.031, the “Reactivity in EIA” value (Antibodies to HIV-2; HIV-2 positive serum GOM (B), 1:32) was 0.035 and the “Reactivity in EIA” value (Antibodies to HIV-2; HIV-2 positive serum GOM (B), 1:64) was 0.074. For the same substance, the “Reactivity in EIA” value (Antibodies to HIV-2; HIV-2 positive serum GOM (B), 1:128) was 0.031, the “Reactivity in EIA” value (Antibodies to HIV-2; HIV-2 positive serum GOM (B), 1:256) was 0.035 and the “Reactivity in EIA” value (Antibodies to HIV-2; HIV-2 positive serum GOM (B), 1:512) was 0.040. For the same substance, the “Reactivity in EIA” value (Antibodies to HIV-2; HIV-2 positive serum GOM (B), 1:1024) was 0.037.
